Data: paper PMC7237647, “Synthesis, in vitro and in vivo evaluation of ^11C-O-methylated arylpiperazines as potential serotonin 1A (5-HT1A) receptor antagonist radiotracers” (EJNMMI Radiopharmacy and Chemistry, 2020)

Legend:
5-HT2C [1] = target: T1, 5-HT2C (Homo sapiens, UniProt P28335); experiment: NIMH-PDSP radioligand binding assay, 5-HT2C
T1 construct: NIMH-PDSP
T1 sequence (P28335 33-458): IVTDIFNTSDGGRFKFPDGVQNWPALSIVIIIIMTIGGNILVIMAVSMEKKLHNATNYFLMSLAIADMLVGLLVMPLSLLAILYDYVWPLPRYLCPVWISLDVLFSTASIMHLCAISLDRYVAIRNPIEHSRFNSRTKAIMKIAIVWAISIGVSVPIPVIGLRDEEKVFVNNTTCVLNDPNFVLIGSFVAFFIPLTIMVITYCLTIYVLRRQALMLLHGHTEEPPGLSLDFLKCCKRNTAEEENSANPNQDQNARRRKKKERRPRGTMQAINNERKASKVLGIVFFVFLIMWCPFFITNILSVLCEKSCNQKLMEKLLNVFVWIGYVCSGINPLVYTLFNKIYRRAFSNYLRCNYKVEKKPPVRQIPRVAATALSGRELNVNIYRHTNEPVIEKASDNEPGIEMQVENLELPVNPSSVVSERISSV

5-HT7R = target: T2, 5-HT7R (Homo sapiens, UniProt P34969); experiment: NIMH-PDSP radioligand binding assay, 5-HT7R
T2 construct: NIMH-PDSP
T2 sequence (P34969 whole entry): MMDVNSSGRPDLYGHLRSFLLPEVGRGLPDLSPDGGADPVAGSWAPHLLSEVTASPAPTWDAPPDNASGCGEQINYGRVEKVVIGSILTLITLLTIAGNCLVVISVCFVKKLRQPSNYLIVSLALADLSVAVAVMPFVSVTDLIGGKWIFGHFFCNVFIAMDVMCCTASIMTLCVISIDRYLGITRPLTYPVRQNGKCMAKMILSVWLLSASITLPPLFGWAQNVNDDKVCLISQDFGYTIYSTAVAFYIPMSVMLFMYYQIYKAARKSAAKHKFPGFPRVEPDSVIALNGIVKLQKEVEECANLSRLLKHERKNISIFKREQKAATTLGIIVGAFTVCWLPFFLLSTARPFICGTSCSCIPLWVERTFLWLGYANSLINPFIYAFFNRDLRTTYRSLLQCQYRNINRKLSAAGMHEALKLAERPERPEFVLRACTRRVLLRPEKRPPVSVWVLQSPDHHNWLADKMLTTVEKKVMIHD

5-HT2C [2] = target: T1, 5-HT2C; set-up: method as in ref Fiorino et al. [2012]; Fiorino et al. [2016]; Fiorino et al. [2017]; conditions: previous preliminary pharmacological screening; ref Fiorino et al. [2012]; Fiorino et al. [2016]; Fiorino et al. [2017]; cited from earlier work
D3R = target: T3, D3R (Homo sapiens, UniProt P35462); experiment: NIMH-PDSP radioligand binding assay, D3R
T3 construct: NIMH-PDSP
T3 sequence (P35462 whole entry): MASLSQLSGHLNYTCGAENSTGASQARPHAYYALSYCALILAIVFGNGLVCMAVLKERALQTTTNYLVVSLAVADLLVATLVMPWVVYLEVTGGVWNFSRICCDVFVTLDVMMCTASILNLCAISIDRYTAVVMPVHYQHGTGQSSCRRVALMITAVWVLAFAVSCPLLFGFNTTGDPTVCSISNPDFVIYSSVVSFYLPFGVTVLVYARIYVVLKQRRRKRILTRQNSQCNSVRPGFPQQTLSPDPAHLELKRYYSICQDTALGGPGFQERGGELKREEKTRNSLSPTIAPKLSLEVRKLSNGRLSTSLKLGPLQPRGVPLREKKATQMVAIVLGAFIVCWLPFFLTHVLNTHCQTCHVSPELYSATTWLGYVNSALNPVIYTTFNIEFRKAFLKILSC
Description: (§1) . Cross selectivity for biogenic amines, neurotransmitter receptors, and transporters were determined by radioligand binding assays through NIMH- PDSP using validated and established protocols ([NIMH-PDSP Assay Protocol Book Version III, March 2018]).

5-HT3 = target: T4, 5-HT3 (Homo sapiens, UniProt P46098); experiment: NIMH-PDSP radioligand binding assay, 5-HT3
T4 construct: NIMH-PDSP
T4 sequence (P46098 24-478): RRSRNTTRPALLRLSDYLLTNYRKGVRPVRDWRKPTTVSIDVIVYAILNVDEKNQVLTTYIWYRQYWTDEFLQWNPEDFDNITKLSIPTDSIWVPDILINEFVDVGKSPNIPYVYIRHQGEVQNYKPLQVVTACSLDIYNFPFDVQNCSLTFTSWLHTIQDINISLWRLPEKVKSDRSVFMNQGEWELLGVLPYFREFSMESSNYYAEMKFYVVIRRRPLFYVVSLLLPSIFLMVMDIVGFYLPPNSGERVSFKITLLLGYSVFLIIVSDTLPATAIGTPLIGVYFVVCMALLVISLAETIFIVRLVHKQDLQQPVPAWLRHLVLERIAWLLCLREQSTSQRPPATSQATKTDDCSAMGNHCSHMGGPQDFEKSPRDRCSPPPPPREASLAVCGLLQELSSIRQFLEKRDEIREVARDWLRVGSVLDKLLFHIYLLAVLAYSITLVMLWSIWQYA
Description: as §1

Alpha2C = target: T5, Alpha2C (Homo sapiens, UniProt P18825); experiment: NIMH-PDSP radioligand binding assay, Alpha2C
T5 construct: NIMH-PDSP
T5 sequence (P18825 whole entry): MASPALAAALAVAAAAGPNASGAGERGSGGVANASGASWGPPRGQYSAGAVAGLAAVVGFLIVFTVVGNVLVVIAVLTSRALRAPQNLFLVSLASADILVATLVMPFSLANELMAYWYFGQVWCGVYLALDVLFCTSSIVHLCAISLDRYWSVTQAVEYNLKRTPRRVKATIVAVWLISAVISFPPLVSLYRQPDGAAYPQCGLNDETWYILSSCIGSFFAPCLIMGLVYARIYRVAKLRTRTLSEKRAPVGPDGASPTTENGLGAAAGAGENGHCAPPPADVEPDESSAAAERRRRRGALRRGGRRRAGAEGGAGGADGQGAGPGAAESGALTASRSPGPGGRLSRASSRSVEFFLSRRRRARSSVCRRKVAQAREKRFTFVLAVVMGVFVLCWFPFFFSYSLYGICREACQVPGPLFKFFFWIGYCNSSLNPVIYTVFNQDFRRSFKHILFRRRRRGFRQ

5-HT1B = target: T6, 5-HT1B (Homo sapiens, UniProt P28222); experiment: NIMH-PDSP radioligand binding assay, 5-HT1B
T6 construct: NIMH-PDSP
T6 sequence (P28222 whole entry, species assumed): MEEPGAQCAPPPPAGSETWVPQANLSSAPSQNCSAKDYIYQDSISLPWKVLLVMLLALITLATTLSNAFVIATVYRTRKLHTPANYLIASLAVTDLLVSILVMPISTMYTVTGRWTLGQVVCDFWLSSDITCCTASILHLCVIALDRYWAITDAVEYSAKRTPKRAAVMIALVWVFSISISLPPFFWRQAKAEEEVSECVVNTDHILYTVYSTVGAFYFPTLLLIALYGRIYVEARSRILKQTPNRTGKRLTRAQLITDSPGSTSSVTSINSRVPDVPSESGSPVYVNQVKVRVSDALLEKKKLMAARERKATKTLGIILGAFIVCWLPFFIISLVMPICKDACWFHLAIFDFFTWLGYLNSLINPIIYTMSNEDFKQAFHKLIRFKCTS
Description: as §1

5-HT1A receptors = target: 5-HT1A receptors; set-up: method as in ref Fiorino et al. [2012], Fiorino et al. [2016], Fiorino et al. [2017]; conditions: previous reports, different binding assay methodology; ref Fiorino et al. [2012], Fiorino et al. [2016], Fiorino et al. [2017]; cited from earlier work

| Compound | Ki (5-HT2C [1]) | Ki (5-HT7R) | affinity to 5-HT2C (5-HT2C [2]) | Ki (D3R) | Ki (5-HT3) | Ki (Alpha2C) | Ki (5-HT1B) | Ki (5-HT1A receptors) |
| --- | --- | --- | --- | --- | --- | --- | --- | --- |
| COc1ccccc1N1CCN(CCCN/C(=N\C#N)c2ccccn2)CC1 [Compound 1] | > 10000 nM | 76 nM | high affinities | 369 nM | > 10000 nM | 835 nM | > 10000 nM | 4.68 nM |
| COc1ccccc1N1CCN(CCNC(=O)c2ccccn2)CC1 [Compound 2] | > 10000 nM | 830 nM | – | 2550 nM | > 10000 nM | > 10000 nM | > 10000 nM | – |
